In PubChem BioAssay AID330 (DTP/NCI, 2004):
“And” between values parts separate entries of the source, which are not always exact repeats. Equal values may be shown once. Toxic doses and inconclusive results are not listed.

Tested on: P388 leukemia ip, CD2F1 mice, survival T/C
Assay: NCI In Vivo Anticancer Drug Screen. Data for tumor model P388 Leukemia (intraperitoneal) in CD2F1 (CDF1) mice
Settings: endpoint: median survival time, higher = longer survival
Summary of the method: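 Mice carrying the transplanted tumor received test compound or vehicle. Survival was recorded in each group, and the value is the treated-group measurement divided by that of the vehicle-treated control group.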

[1] = dose: 25.0 mg/kg/injection, schedule: Q01DX009 (ip), vehicle: Klucel (hydroxypropylcellulose) (HPC)
[2] = dose: 25.0 mg/kg/injection, schedule: Q01DX009 (ip), vehicle: saline with Tween-80
[3] = dose: 50.0 mg/kg/injection, schedule: Q01DX009 (ip), vehicle: Klucel (hydroxypropylcellulose) (HPC)
[4] = dose: 50.0 mg/kg/injection, schedule: Q01DX009 (ip), vehicle: saline with Tween-80
[5] = dose: 100.0 mg/kg/injection, schedule: Q01DX009 (ip), vehicle: Klucel (hydroxypropylcellulose) (HPC)
[6] = dose: 100.0 mg/kg/injection, schedule: Q01DX009 (ip), vehicle: saline with Tween-80
[7] = dose: 200.0 mg/kg/injection, schedule: Q01DX009 (ip), vehicle: saline with Tween-80
[8] = dose: 50.0 mg/kg/injection, schedule: Q01DX005 (ip), vehicle: Klucel (hydroxypropylcellulose) (HPC)
[9] = dose: 100.0 mg/kg/injection, schedule: Q01DX005 (ip), vehicle: Klucel (hydroxypropylcellulose) (HPC)
[10] = dose: 200.0 mg/kg/injection, schedule: Q01DX005 (ip), vehicle: Klucel (hydroxypropylcellulose) (HPC)
[11] = dose: 25.0 mg/kg/injection, schedule: Q01DX005 (ip), vehicle: Klucel (hydroxypropylcellulose) (HPC)

ClC(Cl)=C(Cl)Cl
T/C (dose: 12.5 mg/kg/injection, schedule: Q01DX009 (ip), vehicle: saline with Tween-80): 102 % of control and 107 % of control | T/C [1]: 100 % of control and 109 % of control | T/C [2]: 107 % of control and 114 % of control | T/C [3]: 98 % of control and 103 % of control | T/C [4]: 105 % of control and 112 % of control | T/C [5]: 100 % of control and 107 % of control | T/C [6]: 108 % of control and 112 % of control | T/C (dose: 200.0 mg/kg/injection, schedule: Q01DX009 (ip), vehicle: Klucel (hydroxypropylcellulose) (HPC)): 100 % of control | T/C [7]: 107 % of control and 110 % of control | T/C (dose: 300.0 mg/kg/injection, schedule: Q01DX009 (ip), vehicle: Klucel (hydroxypropylcellulose) (HPC)): 104 % of control and 106 % of control

NS(=O)(=O)c1cc([N+](=O)[O-])ccc1C(=O)OC1CCCCC1
T/C [8]: 104 % of control | T/C [9]: 113 % of control | T/C [10]: 92 % of control

COc1ccccc1/C=C\C1=CC(=O)CC(c2ccccc2OC)C1C (configuration not stated)
T/C (dose: 50.0 mg/kg/injection, schedule: Q01DX001 (ip), vehicle: Klucel (hydroxypropylcellulose) (HPC)): 104 % of control | T/C (dose: 100.0 mg/kg/injection, schedule: Q01DX001 (ip), vehicle: Klucel (hydroxypropylcellulose) (HPC)): 100 % of control | T/C (dose: 200.0 mg/kg/injection, schedule: Q01DX001 (ip), vehicle: Klucel (hydroxypropylcellulose) (HPC)): 91 % of control

COc1cccc2c1C(=O)c1c(O)c3c(c(O)c1C2=O)CC(O)(/C(C)=N/NC(=O)C(=O)N/N=C(\C)C1(O)Cc2c(O)c4c(c(O)c2C(OC2CC(N)C(O)C(C)O2)C1)C(=O)c1c(OC)cccc1C4=O)CC3OC1CC(N)C(O)C(C)O1 (configuration not stated)
T/C (dose: 1.56 mg/kg/injection, schedule: Q01DX009 (ip), vehicle: water): 163 % of control and 166 % of control | T/C (dose: 3.13 mg/kg/injection, schedule: Q01DX009 (ip), vehicle: water): 180 % of control and 182 % of control | T/C (dose: 6.25 mg/kg/injection, schedule: Q01DX009 (ip), vehicle: water): 184 % of control and 219 % of control | T/C (dose: 12.5 mg/kg/injection, schedule: Q01DX009 (ip), vehicle: water): 88 % of control and 94 % of control

O=c1[nH]c(=O)n(C2OC(CO)C(O)C2O)cc1N1CCOCC1 (configuration not stated)
T/C (dose: 50.0 mg/kg/injection, schedule: Q01DX005 (ip), vehicle: saline): 100 % of control | T/C (dose: 100.0 mg/kg/injection, schedule: Q01DX005 (ip), vehicle: saline): 100 % of control | T/C (dose: 200.0 mg/kg/injection, schedule: Q01DX005 (ip), vehicle: saline): 98 % of control

CCCCCCCCCCCCCCCCCC(=O)O.[Co]
T/C [4]: 87 % of control and 95 % of control and 97 % of control | T/C [6]: 100 % of control and 103 % of control and 97 % of control | T/C [7]: 92 % of control

O=C1C=C(Cl)C(=O)C(c2ccccc2)=C1Cl
T/C (dose: 12.5 mg/kg/injection, schedule: Q01DX005 (ip), vehicle: Klucel (hydroxypropylcellulose) (HPC)): 96 % of control | T/C [11]: 91 % of control

CC1=CCC2C(C)(C)CCCC2(C)C1COC1OC(OCC2C(C)=CCC3C(C)(C)CCCC23C)C2C1=CCC1C(C)(C)CCCC21C (configuration not stated)
T/C (dose: 15.0 mg/kg/injection, schedule: Q01DX009 (ip), vehicle: Klucel (hydroxypropylcellulose) (HPC)): 96 % of control | T/C (dose: 30.0 mg/kg/injection, schedule: Q01DX009 (ip), vehicle: Klucel (hydroxypropylcellulose) (HPC)): 102 % of control | T/C (dose: 60.0 mg/kg/injection, schedule: Q01DX009 (ip), vehicle: Klucel (hydroxypropylcellulose) (HPC)): 93 % of control | T/C (dose: 120.0 mg/kg/injection, schedule: Q01DX009 (ip), vehicle: Klucel (hydroxypropylcellulose) (HPC)): 94 % of control

CCOC(=O)Nc1cc(NC(c2ccccc2)c2ccccc2)c2[nH]cnc2n1
T/C [2]: 88 % of control | T/C [4]: 88 % of control | T/C [6]: 117 % of control | T/C [7]: 96 % of control

Cc1ccccc1C(=O)c1cc(Br)ccc1[N+](=O)[O-]
T/C (dose: 50.0 mg/kg/injection, schedule: Q01DX009 (ip), vehicle: saline): 91 % of control | T/C (dose: 100.0 mg/kg/injection, schedule: Q01DX009 (ip), vehicle: saline): 100 % of control | T/C (dose: 200.0 mg/kg/injection, schedule: Q01DX009 (ip), vehicle: saline): 100 % of control

CC(Br)CN(CC(C)Br)c1ccc(-c2ccccc2)cc1 (configuration not stated)
T/C (dose: 12.5 mg/kg/injection, schedule: Q01DX009 (ip), vehicle: Klucel (hydroxypropylcellulose) (HPC)): 154 % of control | T/C [1]: 164 % of control | T/C [3]: 176 % of control and 181 % of control | T/C [5]: 184 % of control

CCOC(=O)c1nn(C)c2oc(=O)ccc12
T/C [11]: 106 % of control | T/C [8]: 108 % of control | T/C [9]: 104 % of control | T/C [10]: 104 % of control
